Values quoted from earlier work in patent US20200206299A1, “INHIBITORS OF BETA-ARRESTIN-NEUROKININ 1 RECEPTOR INTERACTIONS FOR THE TREATMENT OF PAIN” (priority 2016, published 2020).

System: capsaicin-evoked hyperalgesia
Conditions: intrathecal MEK inhibitor; Ji et al. 2002 is cited

N#CC(=C(/N)Sc1ccccc1N)/C(C#N)=C(\N)Sc1ccccc1N [U0126]
capsaicin-evoked hyperalgesia: inhibited
